PubChem BioAssay (NCI)
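Test compounds were applied to cells in 96-well plates for 48 hours at 5 doses. TGI marks complete inhibition of growth.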

Key:
Experiment in all cases: growth of human tumour cells (NCI), 48 h
[1] = test system: SR leukemia
[2] = test system: SF-268 CNS
[3] = test system: MOLT-4 leukemia
[4] = test system: COLO 205 colon
[5] = test system: CCRF-CEM leukemia
[6] = test system: SK-MEL-28 melanoma
[7] = test system: MCF7 breast
[8] = test system: SK-MEL-5 melanoma
[9] = test system: HT29 colon
[10] = test system: ACHN renal
[11] = test system: T-47D breast
[12] = test system: A549 NSCLC
[13] = test system: M14 melanoma
[14] = test system: SN12C renal
[15] = test system: NCI/ADR-RES ovarian
[16] = test system: KM12 colon
[17] = test system: RPMI-8226 leukemia
[18] = test system: NCI-H23 lung
[19] = test system: OVCAR-3 ovarian
[20] = test system: A498 renal
[21] = test system: SF-539 CNS
[22] = test system: RXF 393 renal
[23] = test system: BT-549 breast
[24] = test system: OVCAR-8 ovarian
[25] = test system: DU-145 prostate
[26] = test system: UACC-257 melanoma
[27] = test system: HCT-15 colon
[28] = test system: SK-OV-3 ovarian
[29] = test system: HOP-62 NSCLC
[30] = test system: MDA-N
[31] = test system: HS 578T breast
[32] = test system: UO-31 renal
[33] = test system: OVCAR-5 ovarian
[34] = test system: OVCAR-4 ovarian
[35] = test system: MDA-MB-435
[36] = test system: NCI-H460 lung
[37] = test system: CAKI-1 renal
[38] = test system: MDA-MB-231 breast
[39] = test system: NCI-H226 lung
[40] = test system: PC-3 prostate
[41] = test system: HOP-92 NSCLC
[42] = test system: HCT-116 colon
[43] = test system: SK-MEL-2 melanoma
[44] = test system: MALME-3M melanoma
[45] = test system: SW-620 colon
[46] = test system: SNB-75 CNS
[47] = test system: U251 CNS
[48] = test system: HCC-2998 colon
[49] = test system: NCI-H522 lung
[50] = test system: UACC-62 melanoma
[51] = test system: K-562 leukemia
[52] = test system: SF-295 CNS
[53] = test system: 786-0 renal
[54] = test system: TK-10 renal
[55] = test system: IGROV1 ovarian
[56] = test system: SNB-19 CNS
[57] = test system: EKVX NSCLC
[58] = test system: HL-60(TB) leukemia
[59] = test system: LOX IMVI melanoma

Measured: TGI

COc1ccc(C2SCC(=O)N2N=C2NC(=O)CC(=O)N2)cc1 (stereo unspecified)
not listed: [56] | [57] | [58] | [59]
> 100 µM: all other assays above

O=S(=O)(O)c1ccc(NN(c2c(O)ccc3ccccc23)S(=O)(=O)O)cc1
not listed: [22] | [41] | [46]
> 100 µM: all other assays above
